Literature values in patent publication US8591947B2, “Dual controlled release dosage form” (Osmotica Kereskedelmi és Szolgáltató KFT, priority 2001, dated 2013).
Where a name gives a salt, the structure may show the parent alone.

| SMILES | Solubility of component in water (U.S.P. term) |
| --- | --- |
| CN[C@H]1CC[C@@H](c2ccc(Cl)c(Cl)c2)c2ccccc21 [sertraline HCl] | slightly soluble |
| CCCc1nn(C)c2c(=O)[nH]c(-c3cc(S(=O)(=O)N4CCN(C)CC4)ccc3OCC)nc12 [sildenafil citrate] | slightly soluble |
| CNS(=O)(=O)Cc1ccc2[nH]cc(CCN(C)C)c2c1 [sumatriptan] | soluble |
| COc1cccc(C2(O)CCCCC2CN(C)C)c1 (centres unmarked) [tramadol HCl] | freely soluble |
| O=c1n(CCCN2CCN(c3cccc(Cl)c3)CC2)nc2ccccn12 [trazodone HCl] | sparingly soluble |
